# Biological target: PI3Kα (Homo sapiens, UniProt P42336, H1047R)
# Assay: ADP-Glo IC50 assay
# Format: biochemical
# Conditions: class symbols; key not given
# PI3Kα, sequence (P42336 whole entry H1047R): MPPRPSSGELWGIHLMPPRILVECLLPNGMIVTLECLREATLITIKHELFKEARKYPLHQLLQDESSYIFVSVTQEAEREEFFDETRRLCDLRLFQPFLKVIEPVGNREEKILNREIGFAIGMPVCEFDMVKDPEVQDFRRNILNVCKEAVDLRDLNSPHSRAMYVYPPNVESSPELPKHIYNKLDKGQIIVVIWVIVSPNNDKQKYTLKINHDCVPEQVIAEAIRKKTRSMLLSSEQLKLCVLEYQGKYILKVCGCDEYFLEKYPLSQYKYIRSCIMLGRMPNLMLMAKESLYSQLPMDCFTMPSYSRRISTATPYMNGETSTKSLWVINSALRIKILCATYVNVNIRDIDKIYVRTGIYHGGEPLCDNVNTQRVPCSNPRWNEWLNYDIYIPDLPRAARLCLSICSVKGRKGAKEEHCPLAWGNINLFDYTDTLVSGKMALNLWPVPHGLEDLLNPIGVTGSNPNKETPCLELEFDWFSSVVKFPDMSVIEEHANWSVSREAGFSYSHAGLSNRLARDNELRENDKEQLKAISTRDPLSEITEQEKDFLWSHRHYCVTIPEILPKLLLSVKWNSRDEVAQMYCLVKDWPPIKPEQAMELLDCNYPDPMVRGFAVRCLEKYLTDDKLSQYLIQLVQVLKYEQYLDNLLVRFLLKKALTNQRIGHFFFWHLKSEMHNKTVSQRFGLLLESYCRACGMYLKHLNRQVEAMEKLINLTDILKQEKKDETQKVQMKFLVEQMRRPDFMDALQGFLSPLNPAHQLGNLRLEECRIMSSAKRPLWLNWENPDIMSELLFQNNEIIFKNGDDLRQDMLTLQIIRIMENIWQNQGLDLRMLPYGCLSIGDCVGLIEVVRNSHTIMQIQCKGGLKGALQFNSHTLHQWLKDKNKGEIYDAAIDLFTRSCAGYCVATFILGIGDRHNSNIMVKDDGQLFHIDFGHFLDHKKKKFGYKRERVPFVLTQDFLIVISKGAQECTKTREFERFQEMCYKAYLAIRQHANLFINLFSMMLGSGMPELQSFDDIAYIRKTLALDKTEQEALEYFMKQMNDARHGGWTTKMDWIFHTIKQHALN
# PI3Kα, sequence (P27986 whole entry partner): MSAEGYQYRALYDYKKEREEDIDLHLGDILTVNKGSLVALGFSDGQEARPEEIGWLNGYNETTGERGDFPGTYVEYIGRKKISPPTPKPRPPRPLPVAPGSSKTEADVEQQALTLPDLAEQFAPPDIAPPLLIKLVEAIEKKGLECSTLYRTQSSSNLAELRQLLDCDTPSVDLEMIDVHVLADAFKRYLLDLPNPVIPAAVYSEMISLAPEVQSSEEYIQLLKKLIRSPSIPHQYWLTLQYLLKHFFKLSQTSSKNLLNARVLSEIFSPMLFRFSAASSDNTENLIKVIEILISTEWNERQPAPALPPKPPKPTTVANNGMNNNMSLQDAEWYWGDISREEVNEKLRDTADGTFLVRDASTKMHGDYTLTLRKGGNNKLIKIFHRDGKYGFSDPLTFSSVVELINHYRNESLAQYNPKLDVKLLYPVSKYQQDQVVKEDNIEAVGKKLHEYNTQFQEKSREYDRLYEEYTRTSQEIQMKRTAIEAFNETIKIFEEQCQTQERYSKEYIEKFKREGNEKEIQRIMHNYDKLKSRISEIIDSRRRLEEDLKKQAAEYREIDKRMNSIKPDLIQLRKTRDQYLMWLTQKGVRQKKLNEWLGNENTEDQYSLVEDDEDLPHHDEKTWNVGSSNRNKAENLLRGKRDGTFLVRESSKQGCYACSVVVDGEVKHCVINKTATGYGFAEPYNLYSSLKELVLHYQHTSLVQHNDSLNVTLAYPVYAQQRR
row,SMILES,IC50 [nM]
1,Cc1cc([C@@H](C)Nc2ccccc2C(=O)O)c2oc(N3CCN(C(=O)CCNc4ccc5c(c4)C(=O)N(C4CCC(=O)NC4=O)C5=O)CC3)cc(=O)c2c1 (stereo partly drawn) [Example I-140],500 to 1000
2,Cc1cc([C@@H](C)Nc2ccccc2C(=O)O)c2oc(N3CCN(C(=O)CCCCCNc4cccc5c4C(=O)N(C4CCC(=O)NC4=O)C5=O)CC3)cc(=O)c2c1 (stereo partly drawn) [Example I-142],500 to 1000
3,Cc1cc([C@@H](C)Nc2ccccc2C(=O)O)c2oc(N3CCN(C(=O)CCC(=O)NCc4ccc5c(c4)C(=O)N(C4CCC(=O)NC4=O)C5)CC3)cc(=O)c2c1 (stereo partly drawn) [Example I-149],1000 to 10000
4,Cc1ccccc1Nc1ncc(C(=O)NCCCC(=O)N[C@H](C(=O)N2C[C@H](O)C[C@H]2C(=O)NCc2ccc(-c3scnc3C)cc2)C(C)(C)C)cc1NC(=O)c1csc2ccccc12 [Example I-48],500 to 1000
5,Cc1ccccc1Nc1ncc(C(=O)NCCCC[C@H](N)C(=O)N[C@H](C(=O)N2C[C@H](O)C[C@H]2C(=O)NCc2ccc(-c3scnc3C)cc2)C(C)(C)C)cc1NC(=O)c1csc2ccccc12 [Example I-74],1000 to 10000
6,Cc1ccccc1Nc1ncc(C(=O)NCCOCCOCCOCCOCCOCCOCCC(=O)N[C@H](C(=O)N2C[C@H](O)C[C@H]2C(=O)NCc2ccc(-c3scnc3C)cc2)C(C)(C)C)cc1NC(=O)c1csc2ccccc12 [Example I-32],1000 to 10000
7,Cc1ccccc1Nc1ncc(C(=O)Nc2ccc(N3CCN(c4ccc5c(c4)C(=O)N(C4CCC(=O)NC4=O)C5=O)CC3)cc2)cc1NC(=O)c1csc2ccccc12 (stereo not drawn) [Example I-55],100 to 500
8,Cc1ccccc1Nc1ncc(C(=O)NCCc2ccc(Nc3ccc4c(c3)C(=O)N(C3CCC(=O)NC3=O)C4=O)cc2)cc1NC(=O)c1csc2ccccc12 (stereo not drawn) [Example I-64],100 to 500
9,O=C1CCC(N2C(=O)c3ccc(NCCOCCOCCOCCOCCOCCOCCOCCOCCOCCOCCOCCOCCNC(=O)c4cc(NC(=O)c5cc(F)cc(C(F)(F)F)c5)c5c(c4)C(=O)N[C@@H]5c4cc(F)ccc4Cl)cc3C2=O)C(=O)N1 (stereo partly drawn) [Example I-151],1000 to 10000
10,Cc1cc([C@H](C)Nc2ccccc2C(=O)O)c2oc(N3CCN(C(=O)CCOCCNc4cccc5c4C(=O)N(C4CCC(=O)NC4=O)C5=O)CC3)cc(=O)c2c1 (stereo partly drawn) [Example I-148],1000 to 10000
11,Cc1ccccc1Nc1ncc(C(=O)NCCCCCCC(=O)N[C@H](C(=O)N2C[C@H](O)C[C@H]2C(=O)NCc2ccc(-c3scnc3C)cc2)C(C)(C)C)cc1NC(=O)c1csc2ccccc12 [Example I-15],100 to 500
12,Cc1cc([C@H](C)Nc2ccccc2C(=O)O)c2oc(N3CCN(C(=O)CCCNc4ccc5c(c4)C(=O)N(C4CCC(=O)NC4=O)C5=O)CC3)cc(=O)c2c1 (stereo partly drawn) [Example I-147],1000 to 10000
13,Cc1ccccc1Nc1ncc(C(=O)NCCCCCCC(=O)N[C@H](C(=O)N2C[C@H](O)C[C@H]2C(=O)N[C@@H](C)c2ccc(-c3scnc3C)cc2)C(C)(C)C)cc1NC(=O)c1csc2ccccc12 [Example I-23],100 to 500
14,Cc1cc([C@@H](C)Nc2ccccc2C(=O)O)c2oc(N3CCN(C(=O)CCCNc4ccc5c(c4)C(=O)N(C4CCC(=O)NC4=O)C5=O)CC3)cc(=O)c2c1 (stereo partly drawn) [Example I-146],1000 to 10000
15,Cc1ccccc1Nc1ncc(C(=O)NCCCNc2ccc3c(c2)C(=O)N(C2CCC(=O)NC2=O)C3=O)cc1NC(=O)c1csc2ccccc12 (stereo not drawn) [Example I-56],< 100
16,Cc1cc([C@@H](C)Nc2ccccc2C(=O)O)c2oc(N3CCN(C(=O)CCCCCNc4ccc5c(c4)C(=O)N(C4CCC(=O)NC4=O)C5=O)CC3)cc(=O)c2c1 (stereo partly drawn) [Example I-132],500 to 1000
17,Cc1ccccc1Nc1ncc(C(=O)NCCOCCOCCC(=O)N[C@H](C(=O)N2C[C@H](O)C[C@H]2C(=O)NCc2ccc(-c3scnc3C)cc2)C(C)(C)C)cc1NC(=O)c1csc2ccccc12 [Example I-37],1000 to 10000
18,O=C1CCC(N2C(=O)c3ccc(NCCCNC(=O)c4cc(NC(=O)c5cc(F)cc(C(F)(F)F)c5)c5c(c4)C(=O)N[C@@H]5c4cc(F)ccc4Cl)cc3C2=O)C(=O)N1 (stereo partly drawn) [Example I-96],100 to 500
19,Cc1ccccc1Nc1ncc(C(=O)NCCOCCOCCOCCC(=O)N[C@H](C(=O)N2C[C@H](O)C[C@H]2C(=O)NCc2ccc(-c3scnc3C)cc2)C(C)(C)C)cc1NC(=O)c1csc2ccccc12 [Example I-35],1000 to 10000
20,O=C1CCC(N2Cc3cc(C(=O)NCCOCCOCCOCCOCCOCCOCCOCCOCCOCCOCCOCCOCCNC(=O)c4cc(NC(=O)c5cc(F)cc(C(F)(F)F)c5)c5c(c4)C(=O)N[C@H]5c4cc(F)ccc4Cl)ccc3C2=O)C(=O)N1 (stereo partly drawn) [Example I-157],500 to 1000
21,Cc1cc([C@H](C)Nc2ccccc2C(=O)O)c2oc(N3CCN(C(=O)CCOCCOCCNC(=O)c4cnc(Nc5ccccc5C)c(NC(=O)c5csc6ccccc56)c4)CC3)cc(=O)c2c1 [Example I-126],100 to 500
22,Cc1cc([C@H](C)Nc2ccccc2C(=O)O)c2oc(N3CCN(C(=O)CCC(=O)NCc4ccc5c(c4)C(=O)N(C4CCC(=O)NC4=O)C5)CC3)cc(=O)c2c1 (stereo partly drawn) [Example I-127],1000 to 10000
23,Cc1ccccc1Nc1ncc(C(=O)N[C@H](CCC(=O)N[C@H](C(=O)N2C[C@H](O)C[C@H]2C(=O)NCc2ccc(-c3scnc3C)cc2)C(C)(C)C)C(O)O)cc1NC(=O)c1csc2ccccc12 [Example I-109],1000 to 10000
24,Cc1cc([C@@H](C)Nc2ccccc2C(=O)O)c2oc(N3CCN(C(=O)CCNc4cccc5c4C(=O)N(C4CCC(=O)NC4=O)C5=O)CC3)cc(=O)c2c1 (stereo partly drawn) [Example I-135],500 to 1000
25,Cc1ccccc1Nc1ncc(C(=O)NCCCC(=O)N[C@H](C(=O)N2C[C@H](O)C[C@H]2C(=O)N[C@@H](C)c2ccc(-c3scnc3C)cc2)C(C)(C)C)cc1NC(=O)c1csc2ccccc12 [Example I-57],500 to 1000

# The remaining lines, values ahead:
row,IC50 [nM],SMILES
1,500 to 1000,O=C1CCC(N2Cc3cc(C(=O)NCCCCCCCCCNC(=O)c4cc(NC(=O)c5cccc(C(F)(F)F)c5)c5c(c4)C(=O)N[C@H]5c4cc(F)ccc4Cl)ccc3C2=O)C(=O)N1 (stereo partly drawn) [Example I-162]
2,100 to 500,Cc1ncsc1-c1ccc([C@H](C)NC(=O)[C@@H]2C[C@@H](O)CN2C(=O)[C@@H](NC(=O)CCCCCCCCCNC(=O)c2cc(NC(=O)c3nsc4ccccc34)c3n2CC(=O)N[C@H]3c2cc(F)ccc2Cl)C(C)(C)C)cc1 [Example I-113]
3,100 to 500,O=C1CCC(N2C(=O)c3ccc(NCCCCNC(=O)c4cnc(Nc5cc(F)ccc5Cl)c(NC(=O)c5csc6ccccc56)c4)cc3C2=O)C(=O)N1 (stereo not drawn) [Example I-97]
4,500 to 1000,COC(=O)CCCCCCCCCNC(=O)c1cnc(Nc2ccccc2C)c(NC(=O)c2csc3ccccc23)c1 [Example I-27]
5,1000 to 10000,O=C1CCC(N2Cc3cc(C(=O)NCCCCCCCCCNC(=O)c4cc(NC(=O)c5cc(F)cc(C(F)(F)F)c5)c5c(c4)C(=O)N[C@@H]5c4cc(F)ccc4Cl)ccc3C2=O)C(=O)N1 (stereo partly drawn) [Example I-70]
6,100 to 500,O=C1CCC(N2C(=O)c3ccc(NCCCCCCCNC(=O)c4cnc(Nc5cc(F)ccc5Cl)c(NC(=O)c5csc6ccccc56)c4)cc3C2=O)C(=O)N1 (stereo not drawn) [Example I-69]
7,1000 to 10000,O=C1CCC(N2Cc3cc(C(=O)NCCCCCCCCCNC(=O)c4cc(NC(=O)c5cccc(C(F)(F)F)c5)c5c(c4)C(=O)N[C@@H]5c4cc(F)ccc4Cl)ccc3C2=O)C(=O)N1 (stereo partly drawn) [Example I-155]
8,< 100,O=C(CCCCCCCNC(=O)c1cc(NC(=O)c2cc(F)cc(C(F)(F)F)c2)c2c(c1)C(=O)N[C@H]2c1cc(F)ccc1Cl)NCc1ccc2c(c1)CN(C1CCC(=O)NC1=O)C2=O (stereo partly drawn) [Example I-93]
9,100 to 500,O=C1CCC(N2Cc3cc(C(=O)NCCCCCCCCCCNC(=O)c4cc(NC(=O)c5cccc(C(F)(F)F)c5)c5c(c4)C(=O)N[C@H]5c4cc(F)ccc4Cl)ccc3C2=O)C(=O)N1 (stereo partly drawn) [Example I-152]
10,1000 to 10000,Cc1ccccc1Nc1ncc(C(=O)NCCOCCOCCC(=O)NCc2ccc3c(c2)CN(C2CCC(=O)NC2=O)C3=O)cc1NC(=O)c1csc2ccccc12 (stereo not drawn) [Example I-30]
11,100 to 500,Cc1ncsc1-c1ccc([C@H](C)NC(=O)[C@@H]2C[C@@H](O)CN2C(=O)[C@@H](NC(=O)CCCCCCCCCNC(=O)c2cc(NC(=O)c3cc(F)cc(C(F)(F)F)c3)c3c(c2)C(=O)N[C@@H]3c2cc(F)ccc2Cl)C(C)(C)C)cc1 [Example I-81]
12,500 to 1000,O=C1CCC(N2Cc3cc(C(=O)NCCCCCCCCCNC(=O)c4cnc(Nc5cc(F)ccc5Cl)c(NC(=O)c5csc6ccccc56)c4)ccc3C2=O)C(=O)N1 (stereo not drawn) [Example I-34]
13,1000 to 10000,Cc1ccccc1Nc1ncc(C(=O)NCCOCCOCCOCCOCCC(=O)NCc2ccc3c(c2)CN(C2CCC(=O)NC2=O)C3=O)cc1NC(=O)c1csc2ccccc12 (stereo not drawn) [Example I-47]
14,1000 to 10000,Cc1ccccc1Nc1ncc(C(=O)NCCOCCOCCOCCC(=O)NCc2ccc3c(c2)CN(C2CCC(=O)NC2=O)C3=O)cc1NC(=O)c1csc2ccccc12 (stereo not drawn) [Example I-26]
15,< 100,Cc1ncsc1-c1ccc(CNC(=O)[C@@H]2C[C@@H](O)CN2C(=O)[C@@H](NC(=O)CCCCCCCCCNC(=O)c2cc(NC(=O)c3cc(F)cc(C(F)(F)F)c3)c3c(c2)C(=O)N[C@@H]3c2cc(F)ccc2Cl)C(C)(C)C)cc1 [Example I-73]
16,100 to 500,Cc1ccccc1Nc1ncc(C(=O)NCCCCCC(=O)NCc2ccc3c(c2)C(=O)N(C2CCC(=O)NC2=O)C3)cc1NC(=O)c1csc2ccccc12 (stereo not drawn) [Example I-58]
17,100 to 500,Cc1ccccc1Nc1ncc(C(=O)NCCCCCCC(=O)NCc2ccc3c(c2)CN(C2CCC(=O)NC2=O)C3=O)cc1NC(=O)c1csc2ccccc12 (stereo not drawn) [Example I-19]
18,100 to 500,Cc1ccccc1Nc1ncc(C(=O)NCCCCCCCNc2cccc3c2C(=O)N(C2CCC(=O)NC2=O)C3=O)cc1NC(=O)c1csc2ccccc12 (stereo not drawn) [Example I-42]
19,< 100,NC(=O)CCCCCCCCCNC(=O)c1cc(NC(=O)c2cc(F)cc(C(F)(F)F)c2)c2c(c1)C(=O)N[C@@H]2c1cc(F)ccc1Cl [Example I-83]
20,< 100,NC(=O)CCCCCCCCCNC(=O)c1cc(NC(=O)c2nsc3ccccc23)c2n1CC(=O)N[C@@H]2c1cc(F)ccc1Cl [Example I-103]
21,100 to 500,O=C(CCCCCCCNC(=O)c1cnc(Nc2cc(F)ccc2Cl)c(NC(=O)c2csc3ccccc23)c1)NCc1ccc2c(c1)CN(C1CCC(=O)NC1=O)C2=O (stereo not drawn) [Example I-41]
22,< 100,NC(=O)CCCCCCCCCNC(=O)c1cc(NC(=O)c2nsc3ccccc23)c2n1CC(=O)N[C@H]2c1cc(F)ccc1Cl [Example I-104]
23,< 100,Cc1ncsc1-c1ccc(CNC(=O)[C@@H]2C[C@@H](O)CN2C(=O)[C@@H](NC(=O)CCCCCCCCCNC(=O)c2cc(NC(=O)c3nsc4ccccc34)c3n2CC(=O)N[C@@H]3c2cc(F)ccc2Cl)C(C)(C)C)cc1 [Example I-107]

# — patent US20260131009A1, “BIFUNCTIONAL PI3K-ALPHA INHIBITORS AND USES THEREOF” (Relay Therapeutics, Inc., priority 2021, published 2026)
